System: mice marrow cells
Details: 20 mg/kg
Procedure: The study objective was detection and quantitative estimate of cytogenetic (mutagenic) activity of pharmacologic substances in polychromatophil cells (PCC) of mammal marrow. The method is based on microscopic recording of cells with micronuclei.
The experiments were performed to 2 months old male and female F1 (CBAx C57BI6/J) cross-breed mice weighing 18-20 g. Each group included 6 animals. The animals were kept at 12 hours light pattern with free food and water access. Animal experiments for assessment of mutagenic properties of the protein/polypeptide complex with single and five-time dosing were conducted in compliance with official records. Three sessions of experiments were carried out with corresponding controls: therapeutic dose was tested on male animals with a single introduction; subtoxic dose was tested on male animals with a single introduction; therapeutic dose was tested on male animals with a single introduction; subtoxic dose was tested on male animals and female with five-time introduction.
Taking into account that the possible presumed method for usage of the PPC at a clinic was intracutaneous, subcutaneous introduction, and external application, in this study subcutaneous introduction of the substance to mice was used. The PPC complex dosing for assessment of mutagenic activity was calculated based on the maximum human recommended daily therapeutic dose (TD). Subcutaneous introduction of PPC was recommended in the amount of 0.2 to 6 ml at 0.1 mg/ml concentration. In this case, a human therapeutic dose (TD), including a child's dose, can be 0.08 mg/kg/daily. In order to calculate an experiment dosing for mice, a conversion factor is recommended that takes into account a human or animal body surface area to weight ratio. In our study, it was 8.33. Therefore, the mice TD was approximately 8.33 x human TD (0.7 mg/kg).
As a subtoxic dose, 10mg/kg, the maximum possible in this experiment conditions dosing was used, as the substance was presented in 0.1 mg/ml concentration, and the normally used amount of substance for mice is 0.1 ml per 10 g. […]

O=P1(N(CCCl)CCCl)NCCCO1 (stereo not drawn) [Cyclophosphamide, cyclophosphamide]
polychromatophilic to normochromatic erythrocytes ratio (compared to control P<0.005): found to shift to the latter | frequency of micronucleus cells (male mice): 62.1% | increased frequency of micronucleus cells (male mice, against reference, P<0.001): 19.6 times

Source: EP2730585B1, “PROTEIN-P[…] OBTAINED FROM TISSUES OF EMBRYOS OF HOOFED ANIMALS , USE ON SKIN TISSUE, METHOD FOR PRODUCING SAID COMPLEX AND PHARMACEUTICAL COMPOSITION” (Aktsionernoe Obschestvo "Pharm-Sintez", priority 2011, dated 2012)
